Results on 70 compounds are retold here after US7759349B2, “Control of parasites in animals by the use of imidazo[1,2-b]pyridazine derivatives” (Schering-Plough Animal Health Corporation, priority 2003, dated 2010).

Molecules are shown by their SMILES.

The subject of the first assay is Haemonchus contortus. Nature of the assay: Haemonchus contortus larvacidal assay: NemaTOX H. contortus dose response (larval development, eggs to L3). In kind it is cell-based. Particulars: Haemonchus contortus, 144 h; Table 1; concentration required to inhibit development in 99% of the nematode larvae; eggs on agar to L3 stage (6 days); two-fold dilutions, 0.024 to 50 μg/ml; read-out: LD99. The procedure:
Haemonchus Contortus Larvacidal Assay: NemaTOX H.contortus Dose Response (00/0510)
Effect on larval development is determined in the assay described by Gill et al. (International Journal of Parasitology, 1995, 25, 463-470). Briefly, in this assay nematode eggs were applied to the surface of an agar matrix containing the test compound and then allowed to develop through to the L3, infective stage (6 days)
The wells for each dilution of every compound (from highest to lowest concentration) were inspected to determine the well number corresponding to the lowest concentration at which development was inhibited in 99% of the nematode larvae present. As the well numbers correspond to a two-fold serial dilution of each compound, a titre (dilution factor) is generated as 2^n-1, where n is the well number. By dividing the highest concentration tested by the titre an LD99 value can be obtained, representing the concentration required to inhibit development in 99% of the nematode larvae present.
The compounds supplied as solid and viscous liquids were dissolved in DMSO. Twelve serial 1/2 dilutions in DMSO solution were prepared from the stock solution, each of which was then diluted 1/5 with water. Aliquots (10 μl) of each dilution were transferred to the bioassay plates to give a final concentration range of 0.024 to 50 μg/ml.
In Tables 1, 2 and 3 the Haemonchus contortus LD99 values for compounds in accordance with the present invention are listed, measured in micrograms/mL.
With `c1cc2c(cc1-c1cn3nc(OCC4CC4)ccc3n1)OCO2` [Compound 43, 2-(3,4-Methylendioxyphenyl)-6-cyclopropylmethoxyimidazo[1,2-b]pyridazine], the IC99 was 0.117 µg/mL.
Same read-out and setting: for `Cc1c(-c2cccs2)nc2ccc(OCC3CC3)nn12` [Compound 44] the value was 0.375 µg/mL.

Staying with this assay, now noted: Table 1; concentration required to inhibit development in 99% of the nematode larvae; eggs on agar to L3 stage (6 days); two-fold dilutions, 0.024 to 50 μg/ml.
In turn, `COc1ccc2nc(-c3ccc(C)cc3)cn2n1` [Compound 1] gave an LD99 of 3.75 micrograms/mL.
The same measure, in the same setting: the value for `CCOc1ccc2nc(-c3ccc(C)cc3)cn2n1` [Compound 2] was 0.875 micrograms/mL; that for `COc1c(-c2ccccc2)nc2ccc(SC)nn12` [Compound 3] was 3 micrograms/mL.
On the same count and under the same terms, the value for `CSc1ccc2nc(-c3ccccc3)cn2n1` [Compound 4] was 2.75 micrograms/mL.
The same measure, in the same setting: for `c1ccc(Sc2ccc3nc(-c4ccccc4)cn3n2)cc1` [Compound 5] the value was 1.625 micrograms/mL.
In turn, `CSc1ccc2nc(-c3ccc4c(c3)OCO4)cn2n1` [Compound 6] showed an LD99 of 3.25 micrograms/mL.
The same measure, in the same setting: for `CCCSc1ccc2nc(-c3ccc(C)cc3)cn2n1` [Compound 7] the value was 0.938 micrograms/mL.
The same measure, in the same setting: the value for `CCCSc1ccc2nc(-c3ccc4c(c3)OCO4)cn2n1` [Compound 8] was 0.813 micrograms/mL; that for `COc1c(-c2ccc3cc(C)ccc3c2)nc2ccc(SC)nn12` [Compound 9] was greater than 15.0 micrograms/mL.
In the case of `c1ccc(COc2ccc3nc(-c4ccccc4)cn3n2)cc1` [Compound 10], the LD99 turned out to be 5.5 micrograms/mL.
`CCCOc1ccc2nc(-c3ccc(Cl)cc3)cn2n1` [Compound 11] yielded an LD99 of 3.75 micrograms/mL.
Turning to `CCSc1ccc2nc(-c3ccc(C)cc3)cn2n1` [Compound 12], the LD99 turned out to be 1.25 micrograms/mL.
Still for that read-out and setting: for `CCCSc1ccc2nc(-c3cccc(OC)c3)cn2n1` [Compound 13] the value was 0.63 micrograms/mL; for `CCCSc1ccc2nc(-c3cc(OC)c(OC)c(OC)c3)cn2n1` [Compound 14], greater than 15.0 micrograms/mL.
Same read-out and setting: the value for `COc1cccc(-c2nc3ccc(SC)nn3c2OC)c1` [Compound 15] was 2.75 micrograms/mL.
Same read-out and setting: for `CCCOc1ccc2nc(-c3ccc4c(c3)OCO4)cn2n1` [Compound 16] the value was 0.23 micrograms/mL; for `COc1ccc(-c2nc3ccc(OCc4ccccc4)nn3c2OC)cc1` [Compound 17], greater than 15.0 micrograms/mL.
The compound `COc1ccc(-c2cn3nc(OC)ccc3n2)cc1` [Compound 18] had an LD99 of 3 micrograms/mL.
In turn, `COc1cccc(Sc2ccc3nc(-c4ccc5c(c4)OCO5)cn3n2)c1` [Compound 19] came in with an LD99 greater than 15.0 micrograms/mL.
Same read-out and setting: the value for `CSCc1c(-c2ccc(Cl)cc2)nc2ccc(SC)nn12` [Compound 20] was greater than 15.0 micrograms/mL; that for `COc1c(-c2ccccc2)nc2ccc(Sc3ccccc3)nn12` [Compound 21] was greater than 15.0 micrograms/mL.
Still for that read-out and setting: for `CCCSc1ccc2nc(-c3ccccc3)c(OC)n2n1` [Compound 22] the value was greater than 15.0 micrograms/mL.
Turning to `COc1c(-c2ccccc2)nc2ccc(OCc3ccccc3)nn12` [Compound 23], the LD99 is reported as greater than 15.0 micrograms/mL.
Same read-out and setting: for `CCSc1ccc2nc(-c3ccccc3)c(OC)n2n1` [Compound 24] the value was 7.5 micrograms/mL; for `COCCOc1ccc2nc(-c3ccc4c(c3)OCO4)cn2n1` [Compound 25], 1.25 micrograms/mL; for `CCCOc1ccc2nc(-c3ccc(OC)c(OC)c3)cn2n1` [Compound 26], 1.3 micrograms/mL.
On the same count and under the same terms, the value for `CCCOc1ccc2nc(-c3ccc(OCC)cc3)cn2n1` [Compound 27] was 0.1 micrograms/mL; that for `CCCOc1ccc2nc(-c3cccc(OC)c3)cn2n1` [Compound 28] was 0.23 micrograms/mL.
Same read-out and setting: the value for `CCCSc1ccc2nc(-c3ccc(OC)c(OC)c3)cn2n1` [Compound 29] was 1.9 micrograms/mL; that for `CCCSc1ccc2nc(-c3ccc(OCC)cc3)cn2n1` [Compound 30] was 0.38 micrograms/mL.
For `CCOc1ccc(-c2cn3nc(OC4CCCC4)ccc3n2)cc1` [Compound 31], the LD99 is 0.875 micrograms/mL.
`CCCOc1nn2cc(-c3ccc(OCC)cc3)nc2cc1C` [Compound 32] showed an LD99 of 0.188 micrograms/mL.
The compound `CCCOc1ccc2nc(-c3ccc(Cl)s3)cn2n1` [Compound 34] showed an LD99 of 0.188 micrograms/mL.
On the same count and under the same terms, for `CCOc1ccc(-c2cn3nc(-c4ccccc4)ccc3n2)cc1` [Compound 35] the value was 10 micrograms/mL; for `COc1ccc(-c2nc3ccc(-c4ccccc4)nn3c2C)cc1` [Compound 36], 0.8123 micrograms/mL; for `CCCOc1ccc2nc(-c3ccc(OC)cc3)c(C)n2n1` [Compound 37], 0.344 micrograms/mL.
On the same count and under the same terms, for `CCCOc1ccc2nc(-c3ccc(OC)c(Br)c3)c(C)n2n1` [Compound 38] the value was 3.75 micrograms/mL.
The same measure, in the same setting: for `CCOc1ccc(-c2nc3ccc(OCC4CC4)nn3c2Br)cc1` [Compound 39] the value was 2.75 micrograms/mL; for `CCCOc1ccc2nc(-c3ccc(OCC)cc3)c(Br)n2n1` [Compound 40], 0.344 micrograms/mL; for `CCOc1ccc(-c2cn3nc(SCc4ccc(OC)cc4)ccc3n2)cc1` [Compound 41], 11 micrograms/mL.
In turn, `CCOc1ccc(-c2cn3nc(SCc4ccc(Cl)cc4)ccc3n2)cc1` [Compound 42] returned an LD99 of 3 micrograms/mL.
Same read-out and setting: for `Cc1c(-c2cccs2)nc2ccc(Br)nn12` [Compound 45] the value was 6 micrograms/mL.
Still for that read-out and setting: for `CCCCCCSc1ccc2nc(-c3cccs3)c(C)n2n1` [Compound 46] the value was 6.5 micrograms/mL; for `COc1ccc(CSc2ccc3nc(-c4cccs4)c(C)n3n2)cc1` [Compound 47], 7.5 micrograms/mL.
On to `CCCSc1ccc2nc(-c3ccc(OCC)cc3)c(Cl)n2n1` [Compound 48], for which the LD99 was found to be 6 micrograms/mL.
`CCOc1ccc(-c2cn3nc(SCC(C)C)ccc3n2)cc1` [Compound 49]: the LD99 turned out to be 1.75 micrograms/mL.
Same read-out and setting: the value for `CCOc1ccc(-c2cn3nc(SC(C)C)ccc3n2)cc1` [Compound 50] was 0.875 micrograms/mL.
The same measure, in the same setting: the value for `CCOc1ccc(-c2cn3nc(OC(C)C)ccc3n2)cc1` [Compound 51] was 1.875 micrograms/mL.
On the same count and under the same terms, for `COc1ccc(-c2cn3nc(SC(C)C)ccc3n2)cc1` [Compound 52] the value was 0.938 micrograms/mL; for `CCCCOc1ccc2nc(-c3ccc(OCCC)cc3)cn2n1` [Compound 53], 0.344 micrograms/mL; for `CCCOc1ccc2nc(-c3ccc(F)cc3F)cn2n1` [Compound 54], 0.219 micrograms/mL.
`CCCOc1ccc2nc(-c3ccc(F)cc3)cn2n1` [Compound 55] displayed an LD99 of 0.813 micrograms/mL.
Same read-out and setting: the value for `CCc1ccc(-c2cn3nc(OCC4CC4)ccc3n2)cc1` [Compound 56] was 0.0781 micrograms/mL.
In the case of `COc1ccc(-c2cn3nc(SCC(C)C)ccc3n2)cc1OC` [Compound 57], the LD99 came out at 1.375 micrograms/mL.
For `COc1ccc(-c2cn3nc(OC(C)C)ccc3n2)cc1OC` [Compound 58], the LD99 amounted to 15 micrograms/mL.
Still for that read-out and setting: for `CCCCOc1ccc2nc(-c3ccc(OCCC)cc3)c(CN(C)C)n2n1` [Compound 59] the value was 14 micrograms/mL.
On the same count and under the same terms, for `CCOc1ccc(-c2cn3nc(OCC)ccc3n2)cc1` [Compound 60] the value was 0.172 micrograms/mL; for `CCCOc1ccc2nc(-c3ccc4c(c3)OCCO4)cn2n1` [Compound 61], 0.813 micrograms/mL; for `CCCOc1nn2cc(-c3ccc(OCC)cc3)nc2c2ccccc12` [Compound 62], 0.625 micrograms/mL.

The same assay, now with this note: Table 2; concentration required to inhibit development in 99% of the nematode larvae; eggs on agar to L3 stage (6 days); two-fold dilutions, 0.024 to 50 μg/ml.
The compound `COCCOc1ccc(-c2cn3nc(OCCOC)ccc3n2)cc1` [Compound 64] showed an LD99 of 6 micrograms/mL.
Same read-out and setting: for `CCCOc1ccc2nc(-c3ccc(OCCOC)c(OC)c3)cn2n1` [Compound 66] the value was 0.81 micrograms/mL.
The same measure, in the same setting: for `COCCOc1ccc(-c2cn3nc(N4CCCCC4)ccc3n2)cc1` [Compound 67] the value was 1.5 micrograms/mL.
Turning to `CCCSc1ccc2nc(-c3ccc(OCCOC)c(OC)c3)cn2n1` [Compound 68], the LD99 is 0.44 micrograms/mL.
The compound `COCCOc1ccc(-c2cn3ncccc3n2)cc1` [Compound 69] had an LD99 of 15 micrograms/mL.
Same read-out and setting: the value for `COCCOc1ccc(-c2cn3nc(N4CCCC4)ccc3n2)cc1` [Compound 70] was 3.25 micrograms/mL; that for `CCCNc1ccc2nc(-c3ccc(OCCOC)cc3)cn2n1` [Compound 71] was 0.688 micrograms/mL; that for `COCCOc1ccc(-c2cn3nc(OC4CCCC4)ccc3n2)cc1` [Compound 73] was 1.875 micrograms/mL.
The same measure, in the same setting: for `OCCOc1ccc(-c2cn3nc(OC4CCCC4)ccc3n2)cc1` [Compound 74] the value was 7 micrograms/mL.
